Measurements: the supplement of paper PMC10307832

Assays:
Test in all cases: relative viability (nuclei count vs DMSO), 5 days (fraction); higher = more cells survive
17-AAG + Lapatinib = compound: C=CCNC1=C2C[C@@H](C)C[C@H](OC)[C@H](O)[C@@H](C)/C=C(\C)[C@H](OC(N)=O)[C@@H](OC)/C=C\C=C(/C)C(=O)NC(=CC1=O)C2=O [17-AAG] + CS(=O)(=O)CCNCc1ccc(-c2ccc3ncnc(Nc4ccc(OCc5cccc(F)c5)c(Cl)c4)c3c2)o1 [Lapatinib] (partner 2 µM)
Summary of the method: (§1)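 Values are medians from duplicate plates. Each reflects relative viability, defined as the nuclei count of treated wells over that of vehicle wells. Lung cancer cell lines in 1536-well plates were pin-tool dosed one day after seeding with one drug alone or with a fixed anchor-drug dose plus five library-drug doses (not always all listed) in √10 steps, then fixed, stained and imaged at 4× after 5 days.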

17-AAG + Crizotinib = compound: C=CCNC1=C2C[C@@H](C)C[C@H](OC)[C@H](O)[C@@H](C)/C=C(\C)[C@H](OC(N)=O)[C@@H](OC)/C=C\C=C(/C)C(=O)NC(=CC1=O)C2=O [17-AAG] + C[C@@H](Oc1cc(-c2cnn(C3CCNCC3)c2)cnc1N)c1c(Cl)ccc(F)c1Cl [Crizotinib] (partner 1 µM)
Summary of the method: as §1

17-AAG + Tozasertib = compound: C=CCNC1=C2C[C@@H](C)C[C@H](OC)[C@H](O)[C@@H](C)/C=C(\C)[C@H](OC(N)=O)[C@@H](OC)/C=C\C=C(/C)C(=O)NC(=CC1=O)C2=O [17-AAG] + Cc1cc(Nc2cc(N3CCN(C)CC3)nc(Sc3ccc(NC(=O)C4CC4)cc3)n2)n[nH]1 [Tozasertib] (partner 0.1 µM)
Summary of the method: as §1

17-AAG + Decitabine = compound: C=CCNC1=C2C[C@@H](C)C[C@H](OC)[C@H](O)[C@@H](C)/C=C(\C)[C@H](OC(N)=O)[C@@H](OC)/C=C\C=C(/C)C(=O)NC(=CC1=O)C2=O [17-AAG] + Nc1ncn([C@H]2C[C@H](O)[C@@H](CO)O2)c(=O)n1 [Decitabine] (partner 2 µM)
Summary of the method: as §1

Cell Line | relative viability (17-AAG + Lapatinib; first compound 0.00128 µM) | relative viability (17-AAG + Lapatinib; first compound 0.004048 µM) | relative viability (17-AAG + Lapatinib; first compound 0.0128 µM) | relative viability (17-AAG + Lapatinib; first compound 0.04048 µM) | relative viability (17-AAG + Lapatinib; first compound 0.128 µM) | relative viability (17-AAG + Crizotinib; first compound 0.00128 µM) | relative viability (17-AAG + Crizotinib; first compound 0.004048 µM) | relative viability (17-AAG + Crizotinib; first compound 0.0128 µM) | relative viability (17-AAG + Crizotinib; first compound 0.04048 µM) | relative viability (17-AAG + Crizotinib; first compound 0.128 µM) | relative viability (17-AAG + Tozasertib; first compound 0.00128 µM) | relative viability (17-AAG + Tozasertib; first compound 0.004048 µM) | relative viability (17-AAG + Tozasertib; first compound 0.0128 µM) | relative viability (17-AAG + Tozasertib; first compound 0.04048 µM) | relative viability (17-AAG + Tozasertib; first compound 0.128 µM) | relative viability (17-AAG + Decitabine; first compound 0.00128 µM) | relative viability (17-AAG + Decitabine; first compound 0.004048 µM) | relative viability (17-AAG + Decitabine; first compound 0.0128 µM) | relative viability (17-AAG + Decitabine; first compound 0.04048 µM) | relative viability (17-AAG + Decitabine; first compound 0.128 µM)
NCI-H1355 | 0.97 | 0.979 | 0.776 | 0.223 | 0.159 | 1.03 | 1.1 | 1.1 | 0.93 | 0.287 | 0.554 | 0.583 | 0.543 | 0.555 | 0.167 | 0.35 | 0.345 | 0.361 | 0.246 | 0.183
NCI-H1437 | 0.825 | 0.7 | 0.247 | 0.151 | 0.0848 | 0.976 | 0.806 | 0.378 | 0.126 | 0.0903 | 0.4 | 0.477 | 0.296 | 0.311 | 0.164 | 0.531 | 0.636 | 0.504 | 0.311 | 0.241
NCI-H1650 | 0.624 | 0.303 | 0.133 | 0.171 | 0.175 | 1.01 | 0.659 | 0.136 | 0.179 | 0.126 | 0.458 | 0.317 | 0.215 | 0.175 | 0.206 | 0.384 | 0.33 | 0.185 | 0.165 | 0.134
NCI-H1651 | 0.841 | 0.874 | 0.519 | 0.168 | 0.146 | 0.828 | 0.82 | 0.828 | 0.827 | 0.571 | 0.778 | 0.667 | 0.612 | 0.302 | 0.14 | 0.389 | 0.68 | 0.481 | 0.362 | 0.179
NCI-H1666 | 0.682 | 0.595 | 0.234 | 0.261 | 0.219 | 1.04 | 0.853 | 0.288 | 0.305 | 0.215 | 0.589 | 0.599 | 0.46 | 0.343 | 0.294 | 0.74 | 0.804 | 0.641 | 0.364 | 0.363
NCI-H1734 | 0.952 | 0.934 | 0.764 | 0.579 | 0.141 | 0.647 | 0.681 | 0.646 | 0.195 | 0.142 | 0.272 | 0.293 | 0.224 | 0.161 | 0.125 | 0.502 | 0.536 | 0.46 | 0.242 | 0.142
NCI-H1755 | 1.06 | 0.972 | 0.772 | 0.27 | 0.165 | 0.888 | 0.841 | 0.84 | 0.588 | 0.209 | 0.609 | 0.477 | 0.481 | 0.363 | 0.215 | 0.695 | 0.772 | 0.671 | 0.643 | 0.391
NCI-H1915 | 0.883 | 1.06 | 0.894 | 0.571 | 0.0701 | 0.89 | 0.899 | 0.871 | 0.878 | 0.223 | 0.455 | 0.442 | 0.401 | 0.392 | 0.111 | 0.259 | 0.271 | 0.263 | 0.25 | 0.0807
NCI-H1944 | 0.795 | 0.889 | 0.646 | 0.482 | 0.169 | 1.01 | 1.18 | 1.02 | 0.799 | 0.289 | 0.239 | 0.248 | 0.219 | 0.213 | 0.138 | 0.418 | 0.445 | 0.441 | 0.357 | 0.163
NCI-H1975 | 0.872 | 0.739 | 0.256 | 0.166 | 0.11 | 0.951 | 0.825 | 0.218 | 0.163 | 0.126 | 0.796 | 0.587 | 0.145 | 0.12 | 0.0964 | 0.378 | 0.396 | 0.266 | 0.175 | 0.14
NCI-H1993 | 0.767 | 0.76 | 0.627 | 0.45 | 0.451 | 0.932 | 0.969 | 0.899 | 0.537 | 0.403 | 0.56 | 0.591 | 0.585 | 0.42 | 0.453 | 0.609 | 0.606 | 0.544 | 0.408 | 0.348
NCI-H2009 | 1.16 | 0.954 | 0.816 | 0.424 | 0.0895 | 1.12 | 1.01 | 0.99 | 0.496 | 0.0881 | 0.727 | 0.72 | 0.756 | 0.65 | 0.259 | 0.421 | 0.398 | 0.342 | 0.265 | 0.134
NCI-H2023 | 0.872 | 0.675 | 0.0806 | 0.106 | 0.0805 | 0.627 | 0.575 | 0.128 | 0.0736 | 0.063 | 0.51 | 0.351 | 0.102 | 0.0765 | 0.0654 | 0.178 | 0.168 | 0.0829 | 0.0643 | 0.0587
NCI-H2085 | 0.784 | 0.802 | 0.812 | 0.875 | 0.527 | 0.913 | 0.71 | 0.971 | 0.924 | 0.637 | 0.798 | 0.673 | 0.71 | 0.799 | 0.679 | 0.498 | 0.512 | 0.588 | 0.57 | 0.495
NCI-H2087 | 0.823 | 0.808 | 0.477 | 0.238 | 0.135 | 0.861 | 0.66 | 0.321 | 0.213 | 0.148 | 0.306 | 0.228 | 0.208 | 0.148 | 0.1 | 0.248 | 0.193 | 0.104 | 0.113 | 0.114
NCI-H2126 | 0.731 | 0.784 | 0.775 | 0.53 | 0.276 | 1.08 | 1.02 | 1.01 | 0.951 | 0.43 | 0.9 | 0.842 | 0.44 | 0.26 | 0.298 | 0.556 | 0.631 | 0.616 | 0.622 | 0.456
NCI-H2170 | 0.281 | 0.283 | 0.24 | 0.234 | 0.197 | 1.29 | 1.19 | 0.959 | 0.588 | 0.203 | 0.739 | 0.77 | 0.65 | 0.327 | 0.173 | 0.375 | 0.47 | 0.291 | 0.336 | 0.152
NCI-H2347 | 0.938 | 0.96 | 1.04 | 0.647 | 0.432 | 0.747 | 0.791 | 0.738 | 0.486 | 0.317 | 0.564 | 0.518 | 0.507 | 0.278 | 0.303 | 0.659 | 0.631 | 0.558 | 0.453 | 0.386
NCI-H2405 | 1.04 | 0.784 | 0.193 | 0.203 | 0.138 | 0.868 | 0.837 | 0.922 | 0.303 | 0.163 | 0.776 | 0.765 | 0.451 | 0.28 | 0.156 | 0.714 | 0.675 | 0.424 | 0.242 | 0.189
NCI-H3122 | 1 | 0.931 | 0.542 | 0.293 | 0.218 | 0.285 | 0.258 | 0.233 | 0.246 | 0.173 | 0.473 | 0.187 | 0.0915 | 0.104 | 0.0922 | 0.487 | 0.413 | 0.426 | 0.235 | 0.118
PC-3 [JPC-3] | 0.486 | 0.442 | 0.444 | – | 0.472 | 0.956 | 0.99 | 0.833 | – | 0.91 | 0.894 | 0.847 | 0.922 | – | 0.839 | 0.829 | 0.816 | 0.911 | 0.451 | 0.658
PC-14 | 0.315 | 0.304 | 0.311 | 0.156 | 0.113 | 0.944 | 0.855 | 0.732 | 0.176 | 0.124 | 0.55 | 0.472 | 0.27 | 0.067 | 0.0544 | 0.183 | 0.199 | 0.097 | 0.103 | 0.0891
RERF-LC-KJ | 0.957 | 0.901 | 1.04 | 0.508 | 0.297 | 0.894 | 0.831 | 0.901 | 0.616 | 0.232 | 0.551 | 0.754 | 0.293 | 0.275 | 0.257 | 0.66 | 0.447 | 0.225 | 0.27 | 0.202
SK-LU-1 | 0.812 | 0.545 | 0.454 | 0.216 | 0.14 | 0.888 | 0.435 | 0.242 | 0.232 | 0.176 | 0.426 | 0.243 | 0.128 | 0.152 | 0.139 | 0.582 | 0.599 | 0.402 | 0.24 | 0.223
SK-MES-1 | 0.55 | 0.559 | 0.405 | 0.188 | 0.145 | 1.02 | 1.01 | 0.822 | 0.224 | 0.144 | 0.872 | 0.851 | 0.168 | 0.164 | 0.143 | 0.405 | 0.362 | 0.197 | 0.145 | 0.141
SW 1573 | 1.06 | 1.21 | 0.897 | 0.217 | 0.117 | 0.764 | 0.872 | 0.687 | 0.167 | 0.106 | 0.234 | 0.254 | 0.117 | 0.104 | 0.0907 | 0.336 | 0.284 | 0.159 | 0.113 | 0.0972
UMC-11 | 0.887 | 0.992 | 0.566 | 0.204 | 0.127 | 0.717 | 0.58 | 0.399 | 0.148 | 0.0804 | 0.222 | 0.219 | 0.225 | 0.217 | 0.222 | 0.484 | 0.658 | 0.536 | 0.523 | 0.255
